The subject of test [1] is serum cholesterol. The experiment in a line: Serum cholesterol in normal CF1 mice (Example 10). In kind it is in vivo, CF1 male mice. As to conditions: Mus musculus, 20 mg/kg/day ip. The protocol: (§1) The ten compounds listed in Table II below were tested for their hypolipidemic activity in CF1 mice.
(§2) Compounds A-J as defined above, were suspended in an aqueous 1percent carboxymethylcellulose (CMC) solution and homogenized. Each of the so prepared compounds were administered to a group of six CF1 male mice, each weighing approximately 25 grams, intraperitioneally for 16 days. Each of these compounds were provided in a dosage of 20 mg/kg/day ip. On Days 9 and 16 blood was obtained by tail vein bleeding. The blood serum so obtained was separated by centrifugation for three minutes. Serum cholesterol levels were determined by a modification of the Liebermann-Burchard reaction (Ness, Clin. Chim. Acta., Vol. 10, 229[1964]). Serum triglyceride levels were determined on Day 16 by use of the Fisher, Hycel Triglyceride Test Kit.
(§3) In addition to the above-described treated mice, an untreated control group of six mice were similarly tested on Days 9 and 16 to determine their serum cholesterol and trigylceride blood levels. Based on the results obtained for the untreated control group, the percent control, based on serum cholesterol and serum triglyceride levels of the treated mice compared to the untreated mice, was obtained. Table III reports this percent control, including standard deviation, indicating the level of confidence of these numbers.

The test system of test [2] is serum triglyceride. The experiment in a line: Serum triglyceride in normal CF1 mice (Example 10). Format: in vivo, CF1 male mice. The following applies: Mus musculus, 384 h, 20 mg/kg/day ip, Day 16, ± standard deviation, read-out: Serum Triglyceride, Day 16 (percent control). As to the method: as §1, §2, §3
The test system of test [3] is serum triglyceride. The experiment in a line: Serum triglyceride in hyperlipidemic mice on atherogenic diet (Example 11). In kind it is in vivo, CF1 male mice. As to conditions: hyperlipidemic CF1 mice, 20 mg/kg/day ip, Day 14, from 367 mg/dl. As to the method: (§4) A group of six CF^1 male mice (about 25 g) was placed on a commercial diet (U.S. Biochemical Corporation BAsal Atherogenic Test Diet) which produced a "hyperlipidemic" state. That is, the average serum cholesterol level in the group of treated mice was raised from 122 to 375 mg % and triglyceride levels were raised from 137 to 367 mg/dl.
(§5) Upon reaching these hyperlipidemic levels, the mice were administered Compound D in a concentration of 20 mg/kg/day intraperitoneally for 14 days while continuing the diet. On Day 14, serum cholesterol and serum triglyceride levels were measured in accordance with the procedure of Example 10.

The test system of test [4] is serum cholesterol. Nature of the test: Serum cholesterol in normal rats (Example 12). Format: in vivo, Sprague-Dawley male rats. As to conditions: 20 mg/kg/day orally. As to the method:
(§6) A solution of Compound D, 2-(3,4,5-trimethoxybenzoyl)-4,4-diethylisoxazolidine-3,5-dione, was suspended in an aqueous solution of 1% CMC, homogenized and administered orally to six Sprague-Dawley male rats, which each weighed approximately 350 grams. Similarly, six Sprague-Dawley male rats of approximately the same weight were administered similar volumes of the same aqueous 1% CMC solution without the active agent, Compound D, also orally. In each case, administration was by intubation needle at 20 mg/kg/day for 14 days. In addition, as a control, a similar group of six male Sprague-Dawley rats were untreated.
(§7) On Days 7 and 14, blood was obtained from each of the rats of the three groups by tail vein bleeding. The blood obtained was separated by centrifugation for three minutes. Serum cholesterol and triglyceride levels were determined in accordance with the procedure of Example 10.

Test [5] relates to serum cholesterol. Nature of the test: Serum cholesterol in hyperlipidemic mice on atherogenic diet (Example 11). Format: in vivo, CF1 male mice. The following applies: hyperlipidemic CF1 mice, 20 mg/kg/day ip, Day 14, from 375 mg %. As to the method: as §4, §5
Test [6] relates to serum triglyceride. The experiment in a line: Serum triglyceride in normal rats (Example 12). Format: in vivo, Sprague-Dawley male rats. As to conditions: 20 mg/kg/day orally. As to the method: as §6, §7
The subject of a further test is plasma lipid level. The following applies: rats; cited from earlier work.
Setting [7] is: 216 h, Day 9, ± standard deviation, read-out: Serum Cholesterol, Day 9 (percent control).
Where [8] appears, read: 384 h, Day 16, ± standard deviation, read-out: Serum Cholesterol, Day 16 (percent control).

Like-named read-outs stand apart in the source and are kept apart here.

Consider `C=C(C)N1OC(=O)C(CC)(CC)C1=O` [A], for which the results for the response vs control in vivo at 20 mg/kg/day with serum cholesterol [1] (setting [7]), with serum cholesterol [1] (setting [8]) and in the test with serum triglyceride [2] were 70 ± 7%, 75 ± 4% and 71 ± 6%, respectively.
For `C=C(c1ccccc1)N1OC(=O)C(CC)(CC)C1=O` [B, 2-(1-phenylethenyl)-4,4-diethylisoxazolidine-3,5-dione] the same measures were 71 ± 5%, 63 ± 6% and 71 ± 4%.
Turning to `CCC1(CC)C(=O)ON(C2(N3OC(=O)C(CC)(CC)C3=O)CCCCC2)C1=O` [C, 1,1-bis-[2-(4,4-diethylisoxazolidine-3,5-dione)]cyclohexane], the response vs control in vivo at 20 mg/kg/day in the test with serum cholesterol [1] (setting [7]) is 86 ± 7%; in the test on serum cholesterol [1] (setting [8]), 73 ± 7%; in the test with serum triglyceride [2], 77 ± 9%.
For the compound `CCC1(CC)C(=O)ON(C(=O)c2cc(OC)c(OC)c(OC)c2)C1=O` [Compound D, 2-(3,4,5-trimethoxybenzoyl)-4,4-diethylisoxazolidine-3,5-dione], in the test with serum triglyceride [3], the “serum triglyceride level after treatment” value came to 187 mg/dL and the “serum triglyceride level remaining, percent of pre-treatment level” value was 51%. Besides, the “serum cholesterol level compared to control rats, Day 7” value with serum cholesterol [4] (Day 7) amounted to 77%. Further, the “serum cholesterol level compared to control rats, Day 14” value in the test with serum cholesterol [4] (Day 14) turned out to be 61%. For the same compound, in the test on serum cholesterol [5], the “serum cholesterol level after treatment” value was found to be 150 mg % and the “serum cholesterol remaining, percent of pre-treatment level” value was determined as 40%. The “average serum triglyceride level compared to control, Day 7” value in the test with serum triglyceride [6] (Day 7) came out at 64%. Besides, the “serum triglyceride level compared to control, Day 14” value with serum triglyceride [6] (Day 14) turned out to be 43%. For the same compound, the response vs control in vivo at 20 mg/kg/day in the test on serum cholesterol [1] (setting [7]) amounted to 82 ± 6%. Also, the response vs control in vivo at 20 mg/kg/day in the test on serum cholesterol [1] (setting [8]) was found to be 51 ± 5%. Moreover, the response vs control in vivo at 20 mg/kg/day in the test on serum triglyceride [2] turned out to be 66 ± 6%.
Turning to `CCC1(CC)C(=O)ON(C(=O)c2ccccc2)C1=O` [E, 2-benzoyl-4,4-diethylisoxazolidine-3,5-dione], the response vs control in vivo at 20 mg/kg/day in the test on serum cholesterol [1] (setting [7]) was 77 ± 5%; in the test on serum cholesterol [1] (setting [8]), 53 ± 6%; in the test with serum triglyceride [2], 63 ± 7%.
`CCC1(CC)C(=O)ON(C(C)(C)N2OC(=O)C(CC)(CC)C2=O)C1=O` [F, 2,2-bis-[2-(4,4-diethylisoxazolidine-3,5-dione)]propane]: the results for the response vs control in vivo at 20 mg/kg/day in the test on serum cholesterol [1] (setting [7]), in the test on serum cholesterol [1] (setting [8]) and with serum triglyceride [2] were 95 ± 4%, 57 ± 6% and 68 ± 8%, respectively.
Take `CCC1(CC)C(=O)ON(C(=O)c2ccc(OC)c(OC)c2)C1=O` [G, 2-(3,4-dimethoxybenzoyl)-4,4-diethylisoxazolidine-3,5-dione]: the response vs control in vivo at 20 mg/kg/day in the test on serum cholesterol [1] (setting [7]) turned out to be 81%; with serum cholesterol [1] (setting [8]) it was 77%; in the test on serum triglyceride [2], 84%.
In the case of `CCC1(CC)C(=O)ON(C(=O)c2ccc(OC)cc2)C1=O` [H, 2-(4-methoxybenzoyl)-4,4-diethylisoxazolidine-3,5-dione], the response vs control in vivo at 20 mg/kg/day in the test with serum cholesterol [1] (setting [7]) came out at 89%; with serum cholesterol [1] (setting [8]) it was 62%; in the test on serum triglyceride [2], 63%.
Consider `CCC1(CC)C(=O)ON(C(=O)c2ccc(C)cc2)C1=O` [I, 2-(4-methylbenzoyl)-4,4-diethylisoxazolidine-3,5-dione], for which the response vs control in vivo at 20 mg/kg/day with serum cholesterol [1] (setting [7]) came out at 73%; with serum cholesterol [1] (setting [8]) it was 46%; in the test with serum triglyceride [2], 86%.
With `CCC1(CC)C(=O)ON(C(=O)c2ccc(Cl)cc2)C1=O` [J, 2-(4-chlorobenzoyl)-4,4-diethylisoxazolidine-3,5-dione], the response vs control in vivo at 20 mg/kg/day in the test on serum cholesterol [1] (setting [7]) came out at 64%; in the test on serum cholesterol [1] (setting [8]), 45%; in the test on serum triglyceride [2], 76%.
For `O=C(O)c1cc(=O)[nH]c(=O)[nH]1` [orotic acid], in the test on plasma lipid level, the plasma lipid level entry is “decrease the plasma lipid level in rats”.
